# Assay results published in PMC5640562, “Synthesis and anticancer activity of novel quinazolinone-based rhodanines” (Chemistry Central Journal, 2017).
# Test system: not given
# Assay: not given
# Conditions: not given
row,SMILES,melting point
1,"O=C1NC(=S)SC1=Cc1ccc(OCc2nc3ccccc3c(=O)n2-c2ccc(F)cc2)cc1 (hydrate or solvate) [Compound 32, 5-{4-[(3-(4-Fluorophenyl)-4-oxo-3,4-dihydroquinazolin-2-yl)methoxy]benzylidene}-2-thioxothiazolidin-4-one]",231 to 233 °C (dec.)
2,"O=C1NC(=S)SC1=Cc1ccc(OCc2nc3ccccc3c(=O)n2-c2ccc(Cl)cc2)cc1 (hydrate or solvate) [Compound 33, 5-{4-[(3-(4-Chlorophenyl)-4-oxo-3,4-dihydroquinazolin-2-yl)methoxy]benzylidene}-2-thioxothiazolidin-4-one]",121 to 123 °C
3,"O=C1NC(=S)SC1=Cc1ccc(OCc2nc3ccccc3c(=O)n2-c2cccc(Cl)c2)cc1 (hydrate or solvate) [Compound 34, 5-{4-[(3-(3-Chlorophenyl)-4-oxo-3,4-dihydroquinazolin-2-yl)methoxy]benzylidene}-2-thioxothiazolidin-4-one]",237 to 239 °C
4,"O=C1NC(=S)SC1=Cc1ccc(OCc2nc3ccccc3c(=O)n2-c2ccc(Br)cc2)cc1 (hydrate or solvate) [Compound 35, 5-{4-[(3-(4-Bromophenyl)-4-oxo-3,4-dihydroquinazolin-2-yl)methoxy]benzylidene}-2-thioxothiazolidin-4-one]",171 to 174 °C
5,"O=C1NC(=S)SC1=Cc1ccc(OCc2nc3ccccc3c(=O)n2-c2cccc(Br)c2)cc1 (hydrate or solvate) [Compound 36, 5-{4-[(3-(3-Bromophenyl)-4-oxo-3,4-dihydroquinazolin-2-yl)methoxy]benzylidene}-2-thioxothiazolidin-4-one]",252 to 254 °C
6,"O=C1NC(=S)SC1=Cc1ccc(OCc2nc3ccccc3c(=O)n2-c2ccc(C(F)(F)F)cc2)cc1 (hydrate or solvate) [Compound 37, 5-{4-[(3-(4-Trifluoromethylphenyl)-4-oxo-3,4-dihydroquinazolin-2-yl)methoxy]benzylidene}-2-thioxothiazolidin-4-one]",153 to 155 °C
7,"Cc1ccc(-n2c(COc3ccc(C=C4SC(=S)NC4=O)cc3)nc3ccccc3c2=O)cc1 (hydrate or solvate) [Compound 38, 5-{4-[(3-(4-Methylphenyl)-4-oxo-3,4-dihydroquinazolin-2-yl)methoxy]benzylidene}-2-thioxothiazolidin-4-one]",148 to 150 °C
8,"COc1cc(C=C2SC(=S)NC2=O)ccc1OCc1nc2ccccc2c(=O)n1-c1ccccc1 (hydrate or solvate) [Compound 41, 5-{4-[(3-Phenyl-4-oxo-3,4-dihydroquinazolin-2-yl)methoxy]-3-methoxybenzylidene}-2-thioxothiazolidin-4-one]",243 to 246 °C
9,"COc1cc(C=C2SC(=S)NC2=O)ccc1OCc1nc2ccccc2c(=O)n1-c1ccc(Cl)cc1 (hydrate or solvate) [Compound 43, 5-{4-[(3-(4-Chlorophenyl)-4-oxo-3,4-dihydroquinazolin-2-yl)methoxy]-3-methoxybenzylidene}-2-thioxothiazolidin-4-one]",239 to 241 °C
10,"COc1cc(C=C2SC(=S)NC2=O)ccc1OCc1nc2ccccc2c(=O)n1-c1ccc(Br)cc1 (hydrate or solvate) [Compound 45, 5-{4-[(3-(4-Bromophenyl)-4-oxo-3,4-dihydroquinazolin-2-yl)methoxy]-3-methoxybenzylidene}-2-thioxothiazolidin-4-one]",214 to 217 °C
11,"COc1cc(C=C2SC(=S)NC2=O)ccc1OCc1nc2ccccc2c(=O)n1-c1cccc(Br)c1 (hydrate or solvate) [Compound 46, 5-{4-[(3-(3-Bromophenyl)-4-oxo-3,4-dihydroquinazolin-2-yl)methoxy]-3-methoxybenzylidene}-2-thioxothiazolidin-4-one]",243 to 245 °C
12,"COc1cc(C=C2SC(=S)NC2=O)ccc1OCc1nc2ccccc2c(=O)n1-c1ccc(C)cc1 (hydrate or solvate) [Compound 48, 5-{4-[(3-(4-Methylphenyl)-4-oxo-3,4-dihydroquinazolin-2-yl)methoxy]-3-methoxybenzylidene}-2-thioxothiazolidin-4-one]",172 to 175 °C
13,"COc1cc(C=C2SC(=S)NC2=O)ccc1OCc1nc2ccccc2c(=O)n1-c1cccc(C)c1 (hydrate or solvate) [Compound 49, 5-{4-[(3-(3-Methylphenyl)-4-oxo-3,4-dihydroquinazolin-2-yl)methoxy]-3-methoxybenzylidene}-2-thioxothiazolidin-4-one]",154 to 156 °C
14,"COc1ccc(-n2c(COc3ccc(C=C4SC(=S)NC4=O)cc3OC)nc3ccccc3c2=O)cc1 (hydrate or solvate) [Compound 50, 5-{4-[(3-(4-Methoxyphenyl)-4-oxo-3,4-dihydroquinazolin-2-yl)methoxy]-3-methoxybenzylidene}-2-thioxothiazolidin-4-one]",148 to 150 °C
15,"O=C1NC(=S)SC1=Cc1ccc(OCc2nc3ccccc3c(=O)n2-c2ccccc2)cc1 [Compound 31, 5-{4-[(3-Phenyl-4-oxo-3,4-dihydroquinazolin-2-yl)methoxy]benzylidene}-2-thioxothiazolidin-4-one]",230 to 232 °C
16,"Cc1cccc(-n2c(COc3ccc(C=C4SC(=S)NC4=O)cc3)nc3ccccc3c2=O)c1 [Compound 39, 5-{4-[(3-(3-Methylphenyl)-4-oxo-3,4-dihydroquinazolin-2yl)methoxy]benzylidene}-2-thioxothiazolidin-4-one]",165 to 168 °C

# Test system: HT-1080 cells
# Assay: MTT cytotoxicity assay, HT-1080 fibrosarcoma cells
# Assay type: cell-based, human
# Conditions: Homo sapiens, HT-1080, 72 h, 3 days incubation, mean of three independent experiments (± standard deviation)
# Experimental: The compounds were tested for their cytotoxic activity on a solid tumor cell line, i.e. HT-1080 originating from a fibrosarcoma (American Type Culture Collection; ATCC, Rockville, MD, USA), and on two leukemia cell lines, i.e. the HL-60 human promyelocytic leukemia (European Collection of Animal Cell Cultures; ECACC, Salisbury, UK) and the K-562 human chronic myelogenous leukemia (ATCC). Furthermore, the human skin fibroblast strain AG01523 (Coriell Institute for Medical Research, Camden, NJ, USA) was also used as normal control. Adherent cells were routinely cultured in Dulbecco’s […] (DMEM), and leukemia cells in RPMI 1640, in an environment of 5% CO2, 85% humidity, and 37 °C. All media were supplemented with penicillin (100 U/ml), streptomycin (100 μg/ml) (media and antibiotics from Biochrom KG, Berlin, Germany), and 10% fetal bovine serum (Life Technologies Europe BV, Thessaloniki, Greece). Adherent cells were subcultured using a trypsin (0.25%; Life Technologies Europe BV)—citrate (0.30%; Sigma, St. Louis, MO, USA) solution. The cytotoxicity assay was performed by a modification of the MTT method. Briefly, the cells were plated in flat-bottomed 96-well microplates at a density of 5000 cells/well, and incubated overnight before the addition of serial dilutions of the test compounds. The cells were incubated with the compounds or the corresponding vehicle (DMSO) concentrations for 3 days. Then, the medium was replaced with MTT (Sigma) in serum-free, phenol-red-free DMEM (1 mg/ml). After incubation for 4 h, the MTT formazan was solubilized in 2-propanol, and the optical density was measured using a FLUOstar Optima (BMG Labtech, Ortenberg, Germany) microplate reader at a wavelength of 550 nm (reference wavelength 660 nm). Doxorubicin hydrochloride (Sigma) was included in the experiments as positive control. The results represent the mean of three independent experiments and are expressed as IC50 [42].
row,SMILES,IC50
1,"O=C1NC(=S)SC1=Cc1ccc(OCc2nc3ccccc3c(=O)n2-c2ccccc2)cc1 [Compound 31, 5-{4-[(3-Phenyl-4-oxo-3,4-dihydroquinazolin-2-yl)methoxy]benzylidene}-2-thioxothiazolidin-4-one]",42.9 µM
2,"O=C1NC(=S)SC1=Cc1ccc(OCc2nc3ccccc3c(=O)n2-c2ccc(F)cc2)cc1 [Compound 32, 5-{4-[(3-(4-Fluorophenyl)-4-oxo-3,4-dihydroquinazolin-2-yl)methoxy]benzylidene}-2-thioxothiazolidin-4-one]",47.3 µM
3,"O=C1NC(=S)SC1=Cc1ccc(OCc2nc3ccccc3c(=O)n2-c2ccc(Cl)cc2)cc1 [Compound 33, 5-{4-[(3-(4-Chlorophenyl)-4-oxo-3,4-dihydroquinazolin-2-yl)methoxy]benzylidene}-2-thioxothiazolidin-4-one]",35.3 µM
4,"O=C1NC(=S)SC1=Cc1ccc(OCc2nc3ccccc3c(=O)n2-c2cccc(Cl)c2)cc1 [Compound 34, 5-{4-[(3-(3-Chlorophenyl)-4-oxo-3,4-dihydroquinazolin-2-yl)methoxy]benzylidene}-2-thioxothiazolidin-4-one]",57.1 µM
5,"O=C1NC(=S)SC1=Cc1ccc(OCc2nc3ccccc3c(=O)n2-c2ccc(Br)cc2)cc1 [Compound 35, 5-{4-[(3-(4-Bromophenyl)-4-oxo-3,4-dihydroquinazolin-2-yl)methoxy]benzylidene}-2-thioxothiazolidin-4-one]",28.8 µM
6,"O=C1NC(=S)SC1=Cc1ccc(OCc2nc3ccccc3c(=O)n2-c2cccc(Br)c2)cc1 [Compound 36, 5-{4-[(3-(3-Bromophenyl)-4-oxo-3,4-dihydroquinazolin-2-yl)methoxy]benzylidene}-2-thioxothiazolidin-4-one]",43.4 µM
7,"Cc1ccc(-n2c(COc3ccc(C=C4SC(=S)NC4=O)cc3)nc3ccccc3c2=O)cc1 [Compound 38, 5-{4-[(3-(4-Methylphenyl)-4-oxo-3,4-dihydroquinazolin-2-yl)methoxy]benzylidene}-2-thioxothiazolidin-4-one]",35.7 µM
8,"Cc1cccc(-n2c(COc3ccc(C=C4SC(=S)NC4=O)cc3)nc3ccccc3c2=O)c1 [Compound 39, 5-{4-[(3-(3-Methylphenyl)-4-oxo-3,4-dihydroquinazolin-2yl)methoxy]benzylidene}-2-thioxothiazolidin-4-one]",47.5 µM
9,"COc1cc(C=C2SC(=S)NC2=O)ccc1OCc1nc2ccccc2c(=O)n1-c1ccccc1 [Compound 41, 5-{4-[(3-Phenyl-4-oxo-3,4-dihydroquinazolin-2-yl)methoxy]-3-methoxybenzylidene}-2-thioxothiazolidin-4-one]",36.1 µM
10,"COc1cc(C=C2SC(=S)NC2=O)ccc1OCc1nc2ccccc2c(=O)n1-c1cccc(Br)c1 [Compound 46, 5-{4-[(3-(3-Bromophenyl)-4-oxo-3,4-dihydroquinazolin-2-yl)methoxy]-3-methoxybenzylidene}-2-thioxothiazolidin-4-one]",23.7 µM
11,"COc1cc(C=C2SC(=S)NC2=O)ccc1OCc1nc2ccccc2c(=O)n1-c1ccc(C)cc1 [Compound 48, 5-{4-[(3-(4-Methylphenyl)-4-oxo-3,4-dihydroquinazolin-2-yl)methoxy]-3-methoxybenzylidene}-2-thioxothiazolidin-4-one]",31.5 µM
12,"COc1cc(C=C2SC(=S)NC2=O)ccc1OCc1nc2ccccc2c(=O)n1-c1cccc(C)c1 [Compound 49, 5-{4-[(3-(3-Methylphenyl)-4-oxo-3,4-dihydroquinazolin-2-yl)methoxy]-3-methoxybenzylidene}-2-thioxothiazolidin-4-one]",30.7 µM
13,"COc1ccc(-n2c(COc3ccc(C=C4SC(=S)NC4=O)cc3OC)nc3ccccc3c2=O)cc1 [Compound 50, 5-{4-[(3-(4-Methoxyphenyl)-4-oxo-3,4-dihydroquinazolin-2-yl)methoxy]-3-methoxybenzylidene}-2-thioxothiazolidin-4-one]",34.7 µM
